Test results: US20260191191A1, “METHOD FOR INACTIVATING ENVELOPED VIRUSES” (Merck Patent GmbH, priority 2022, published 2026)
Entries after “also recorded” stand apart in the source; their conditions may differ. Read-outs that look alike come from different tables or passages of the source.

What was measured:
[1] = tested on: Bovine viral diarrheal virus (BVDV); format: cell-based
[2] = Critical micelle concentration (CMC) determination by static surface tension
[3] = tested on: Fresh human whole blood
[4] = tested on: Xenotropic murine leukemia virus (XMuLV); format: cell-based
[5] = tested on: Pseudorabies virus (PRV); format: cell-based; conditions: CHO clarified harvest, 15° C., within 5 min

With C11-C15 secondary alcohol ethoxylate as the substance, how does the “BVDV inactivation LRV” value [1] read?
The value was at least 4.0.

What about the “critical micelle concentration (CMC)” value [2] of the same substance?
Its value is 49 mg/L.

And the “hemolysis compared with Triton X-100” value [3]?
The value was “comparable to Triton™ X-100”.

What about the “SAE inactivation efficacy higher than Triton X-100 by” value [4] of the same substance?
The value was ~ 1.0 log.

What about the “XMuLV inactivation efficacy compared with Triton X-100” value [4] of the same substance?
Its value is “slightly higher efficacy than Triton™ X-100; also recorded: comparable inactivation with Triton™ X-100; also recorded: lower than that achieved with 1.0% Triton™ X-100, until a longer incubation time has elapsed; also recorded: comparable to that achieved with Triton™ X-100; also recorded: the same virus inactivation efficacy as Triton™ X-100”.

And the “XMuLV inactivation efficiency compared with Triton X-100” value [4]?
Its value is “slightly higher than that achieved with Triton™ X-100 detergent”.

What about the “time in which most XMuLV inactivation occurred” value [4] of the same substance?
The value was at most 5 min.

And the “PRV inactivation LRV” value ([5]; 0.5% detergent)?
The value was ~ 6.5.

And the “PRV inactivation LRV” value ([5]; 1.0% detergent)?
Its value is at least 5.0.
